What is called EC50 is the midpoint of the concentration-response curve. Usually IC50 stands for the concentration that gives 50% inhibition. Lower therefore signals inhibition by little substance.

From patent US12304909B2, “Compounds and their use in therapy” (IMPERIAL COLLEGE INNOVATIONS LIMITED, priority 2018, dated 2025) come the findings set out here.

One series has as its system BL-41 cells. Description: CellTiter-Blue assay, BL-41. In kind it is cell-based, human. As to the method:
(§1) Example NMT inhibitors of the present invention were tested for activity in in vitro CellTiter-Blue® assays using the human cell line MDA MB 231, LY 12318, or BL-41. Comparative Examples 1 and 2 were also tested in the same assays. Compounds having activity in inhibiting metabolic activity in the assay are expected to be useful as agents for preventing and/or treating cancer, by virtue of being inhibitors of human NMT1 and/or NMT2.
(§2) MDA MB 231 cells (obtained from Professor Eric Aboagye, Hammersmith Hospital; cell type: triple negative breast cancer) were grown in low glucose DMEM in 5% CO2 media (supplemented with 10% FBS); LY 12318 cells (obtained from Dr Martin Janz, Max Delbrueck Center; cell type: B cell lymphoma patient derived xenograft) were grown in DMEM media (supplemented with 10% FBS); and BL-41 cells (obtained from Cell Services at the Crick Institute; cell type: Burkitt's Lymphoma) were grown in RPMI-1640 media in 5% CO2 (supplemented with 10% FBS). The MDA MB 231 cells, LY 12318 cells or BL-41 cells were seeded in 96-well plates, 24 h prior to treatment. Cell suspensions were prepared by adjusting the cell density to the appropriate concentration (as stated in the Table 2 below) and 50 μL of the cell suspension was transferred to wells B-G in columns 2-11 of a 96-well plate.
(§3) Twenty-four hours later, 50 μl of growth media (low glucose DMEM in 5% CO2 media supplemented with 10% FBS for MDA MB 231 cells; DMEM media in 5% CO2 supplemented with 10% FBS for LY 12318 cells; or RPMI-1640 media supplemented with 10% FBS for BL-41 cells) containing 0.0004% DMSO (positive control), a mix of Puromycin and Staurosporine (negative controls, final concentration 2 μg/mL and 1 μM respectively) or different concentrations of each Example (Example 1 and 2) or each Comparative Example (Comparative Example 1 and 2) (dilution factor=3, starting at […], final concentration in the plate starting from 10 μM) were prepared and added to a well of the 96-well plate. The plate was incubated at 37° C. with 5% CO2 level.
(§4) 72 hours later, 20 μl/well CellTiter-Blue® (G8081, Promega) were added to the plates according to the manufacturer's protocol, the plate was incubated at 37° C. for 4 h for MDA MB 231 cells and BL-41 cells, or 3 h for LY 12318 cells, followed by measuring the absorbance per well at 570 nm using an EnVision plate reader. The negative control values were subtracted from every value. The metabolic activity was calculated as a percentage relative to the positive control. The EC50 values were calculated using GraphPad Prism.

The target in another series is T1, human NMT1 (HsNMT1) (Homo sapiens, UniProt P30419).
T1 sequence (P30419 1-496): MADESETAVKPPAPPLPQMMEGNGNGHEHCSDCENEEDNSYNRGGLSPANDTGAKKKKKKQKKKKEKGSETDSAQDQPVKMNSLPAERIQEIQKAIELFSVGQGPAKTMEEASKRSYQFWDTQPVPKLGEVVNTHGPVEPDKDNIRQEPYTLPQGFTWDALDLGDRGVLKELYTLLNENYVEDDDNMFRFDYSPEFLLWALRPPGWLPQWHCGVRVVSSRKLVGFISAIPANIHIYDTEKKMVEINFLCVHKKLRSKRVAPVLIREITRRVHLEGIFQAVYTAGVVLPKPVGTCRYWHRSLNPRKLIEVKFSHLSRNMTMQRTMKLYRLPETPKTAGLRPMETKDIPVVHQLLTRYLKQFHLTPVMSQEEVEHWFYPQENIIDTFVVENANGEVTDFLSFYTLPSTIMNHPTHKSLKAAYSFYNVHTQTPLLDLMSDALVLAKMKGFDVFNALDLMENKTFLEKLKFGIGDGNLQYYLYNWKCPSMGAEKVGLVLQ
Description: HsNMT1 IC50, fluorescence-based assay detecting CoA with CPM. In kind it is biochemical. As to the method:
The IC50 values for human NMT1 (HsNMT1) of four Example compounds of the invention described above (Examples 1-4) and six comparative examples (Comparative Examples 1, 2, 3, 4, 5 and 6) were measured using a sensitive fluorescence-based assay based on detection of CoA by 7-diethylamino-3-(4-maleimido-phenyl)-4-methylcoumarin, as described in Goncalves, V., et al., Analytical Biochemistry, 2012, 421, 342-344 and Goncalves, V., et al., J. Med. Chem, 2012, 55, 3578.

The test system of the next series is MDA MB 231 cells. The experiment in a line: CellTiter-Blue assay, MDA MB 231. The series is classed as cell-based, human. As to the method:
as §1, §2, §3, §4
Background: Alamar Blue is a resazurin reagent that responds to reducing activity.

The subject of the next series is LY 12318 cells. Description: CellTiter-Blue assay, LY 12318. Conditions: 72 h, read-out: LY12318 EC50. In kind it is cell-based, human. As to the method:
as §1, §2, §3, §4

The test system of a further series is MRC5 cells. The experiment in a line: Metabolic activity assay (MTS assay), MRC5. The series is classed as cell-based, human. The protocol:
Example NMT inhibitors of the present invention were tested for activity in an in vitro metabolic activity assay using the human cell line MRC5. Comparative Examples 1, 2, 3, 4, 5 and 6 were also tested in the same metabolic activity assay. Compounds having activity in inhibiting metabolic activity in the assay are expected to be useful as agents for preventing and/or treating cancer, by virtue of being inhibitors of human NMT1 and/or NMT2.
MRC5 cells (obtained from Dr David Mann's group, Imperial College; cell type: fibroblasts cells which derive from normal lung tissue) were grown in DMEM media (supplemented with 10% FBS) and were seeded in a 96-well plate, 24 h prior to treatment. Cell suspensions were prepared by adjusting the cell density to the appropriate concentration (as stated in the Table 1 below) and 50 μL of the cell suspension was transferred to wells B-G in columns 2-11 of a 96-well plate.
100 μL of growth media (DMEM media) containing 0.2% DMSO was added to wells B-G in columns 2 and 11 as positive controls, and 100 μl of growth media containing Puromycin (3 μg/mL; final concentration in the plate 2 μg/mL) was added to wells B-G in column 3 as a negative control. Seven concentrations of NMT inhibitor stock solution were prepared for each Example (Example 1 and 2) and each Comparative Example (Comparative Examples 1, 2, 3, 4, 5 and 6) tested (same final percentage of DMSO, dilution factor=3 starting from 15 μM or 150 μM). 100 μL of inhibitor stock solution was added to wells B-G in columns 4-10 of a 96-well plate (final concentration of Example compound or Comparative Example compound in the plate starting from 10 μM or 100 μM; total volume in each well was 150 μL). The plate was incubated at 37° C. with 5% CO2 level.
After 72 h, 20 μL MTS reagent (Promega, prepared according to the supplier protocol) was added to each well of the 96-well plate. The plate was incubated at 37° C. for 2 h and the absorbance per well was measured at 490 nm with an EnVision plate reader. The average absorbance value of the negative control (Puromycin-treated cells) was subtracted from each value and the metabolic activity was calculated as a percentage relative to the positive control (DMSO-treated cells). EC50 values were calculated using GraphPad.
On the technique in general: Formazan colour is commonly taken as a measure of viable cells.

Values joined by “and” are separate entries in the source; they are usually repeats but may differ in a detail not shown here. Equal values may be shown once. Read-outs that look alike come from different tables or passages of the source.

As for `CNC(=O)c1nn(C)c(C)c1CCOc1cc(F)ccc1-c1ccc2ncc(CCN)n2c1` [Comparative Example 2, 4-(2-{2-[3-(2-aminoethyl)imidazo[1,2-a]pyridin-6-yl]-5-fluorophenoxy}ethyl)-N,1,5-trimethyl-1H-pyrazole-3-carboxamide], the EC50 is 298 nM in the series on BL-41 cells (Homo sapiens, BL-41, 72 h); 237 nM in the series with MDA MB 231 cells (Homo sapiens, MDA-MB-231, 72 h); more than 370 nM in the series on LY 12318 cells (Homo sapiens); more than 6800 nM in the series with MRC5 cells (Homo sapiens, MRC5, 72 h). Also, the IC50 against human NMT1 (HsNMT1) was ~1 nM and 1 nM.

With `CNCCc1cnc2ccc(-c3ccc(F)cc3OCCc3c(C)nn(C)c3C)cn12` [Comparative Example 3, [2-(6-{4-fluoro-2-[2-(1,3,5-trimethyl-1H-pyrazol-4-yl)ethoxy]phenyl}imidazo[1,2-a]pyridin-3-yl)ethyl](methyl)amine], it took 10.5 nM to reach half-maximal inhibition at human NMT1 (HsNMT1) (IC50). In addition, the EC50 in the series with MRC5 cells (Homo sapiens, MRC5, 72 h) came out at 5400 nM.

As for `Cc1c(CCOc2cc(Cl)ccc2-c2ccc3ncc(CCN)n3c2)c(C(=O)N(C)C)nn1C` [Example Compound 1, 4-(2-{2-[3-(2-aminoethyl)imidazo[1,2-a]pyridin-6-yl]-5-chlorophenoxy}ethyl)-N,N,1,5-tetramethyl-1H-pyrazole-3-carboxamide], the EC50 came to 14 nM in the series on BL-41 cells (72 h), 20 nM in the series with MDA MB 231 cells (72 h), 27 nM in the series with LY 12318 cells and 13 nM with MRC5 cells (72 h).
